Assay results taken from ChEMBL document CHEMBL1201862, “PubChem BioAssay data set” (2004).
Active and inactive are the calls of the source.

Columns and labels:
Nonstructural protein 1 = Nonstructural protein 1 (Influenza A virus, UniProt Q194T2); assay type: functional, Influenza A virus (A/California/07/2009(H1N1))
[1] = biological target: T1, Short transient receptor potential channel 4 (Mus musculus, UniProt Q9QUQ5); experiment: calcium entry via TRPC4 opening agents – cell-based, HEK293 TRPC4/mu-opioid, Fluo-4 calcium, dose response (AID 434937); assay type: functional
T1 sequence (Q9QUQ5 whole entry): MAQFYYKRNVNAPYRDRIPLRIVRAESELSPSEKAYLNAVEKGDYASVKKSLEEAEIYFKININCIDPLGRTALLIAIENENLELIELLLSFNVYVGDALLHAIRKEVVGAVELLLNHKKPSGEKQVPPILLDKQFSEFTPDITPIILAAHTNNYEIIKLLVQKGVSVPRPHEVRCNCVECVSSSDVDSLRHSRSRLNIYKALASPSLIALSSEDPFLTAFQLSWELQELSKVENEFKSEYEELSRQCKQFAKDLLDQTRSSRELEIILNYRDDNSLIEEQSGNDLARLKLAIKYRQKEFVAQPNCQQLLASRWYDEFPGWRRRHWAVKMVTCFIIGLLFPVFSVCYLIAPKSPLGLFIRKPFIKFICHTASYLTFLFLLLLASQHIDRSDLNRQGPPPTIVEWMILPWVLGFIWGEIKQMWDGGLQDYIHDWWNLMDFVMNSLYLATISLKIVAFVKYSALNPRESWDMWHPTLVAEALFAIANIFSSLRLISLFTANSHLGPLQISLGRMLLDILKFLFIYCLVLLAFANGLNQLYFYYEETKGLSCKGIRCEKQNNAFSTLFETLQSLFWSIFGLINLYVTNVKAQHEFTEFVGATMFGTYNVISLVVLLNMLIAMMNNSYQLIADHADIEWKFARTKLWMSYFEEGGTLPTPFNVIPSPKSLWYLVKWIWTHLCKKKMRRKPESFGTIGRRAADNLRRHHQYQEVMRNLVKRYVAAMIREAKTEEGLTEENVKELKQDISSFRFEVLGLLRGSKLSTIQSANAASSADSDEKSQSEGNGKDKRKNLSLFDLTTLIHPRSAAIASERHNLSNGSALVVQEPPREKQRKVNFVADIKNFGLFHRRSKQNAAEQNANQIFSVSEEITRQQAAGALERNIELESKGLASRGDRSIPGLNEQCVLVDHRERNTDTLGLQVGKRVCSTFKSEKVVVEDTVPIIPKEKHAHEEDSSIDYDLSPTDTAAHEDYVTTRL

[2] = NIH-3T3 fibroblast cytotoxicity, dose response, cytotoxicity control, cell-based, fluorescence, Alamar Blue, secondary assay (AID 2327); assay type: functional;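 note: NIH-3T3 mouse fibroblasts cultured with fluconazole at 8 µg/mL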
[3] = fluconazole-exposed Candida albicans growth modulators – fluorescence, retest, confirmation (AID 2467); assay type: functional, cell-based
HEK293 [4] = experiment: cells; settings: Homo sapiens
HEK293 [5] = experiment: cells; settings: Homo sapiens; remark: listed apart in the source
cells [6] = assay type: functional, cell-based
cells [7] = assay type: functional, cell-based; remark: listed apart in the source
Aminopeptidase N = biological target: T2, Aminopeptidase N (Plasmodium falciparum FcB1/Columbia, UniProt O96935); experiment: malaria alanyl aminopeptidase activity blockers – biochemical, fluorogenic H-Leu-NHMec substrate, 1536-well (AID 1445); set-up: species or system Plasmodium falciparum 3D7, 3D7
T2 sequence (O96935 whole entry): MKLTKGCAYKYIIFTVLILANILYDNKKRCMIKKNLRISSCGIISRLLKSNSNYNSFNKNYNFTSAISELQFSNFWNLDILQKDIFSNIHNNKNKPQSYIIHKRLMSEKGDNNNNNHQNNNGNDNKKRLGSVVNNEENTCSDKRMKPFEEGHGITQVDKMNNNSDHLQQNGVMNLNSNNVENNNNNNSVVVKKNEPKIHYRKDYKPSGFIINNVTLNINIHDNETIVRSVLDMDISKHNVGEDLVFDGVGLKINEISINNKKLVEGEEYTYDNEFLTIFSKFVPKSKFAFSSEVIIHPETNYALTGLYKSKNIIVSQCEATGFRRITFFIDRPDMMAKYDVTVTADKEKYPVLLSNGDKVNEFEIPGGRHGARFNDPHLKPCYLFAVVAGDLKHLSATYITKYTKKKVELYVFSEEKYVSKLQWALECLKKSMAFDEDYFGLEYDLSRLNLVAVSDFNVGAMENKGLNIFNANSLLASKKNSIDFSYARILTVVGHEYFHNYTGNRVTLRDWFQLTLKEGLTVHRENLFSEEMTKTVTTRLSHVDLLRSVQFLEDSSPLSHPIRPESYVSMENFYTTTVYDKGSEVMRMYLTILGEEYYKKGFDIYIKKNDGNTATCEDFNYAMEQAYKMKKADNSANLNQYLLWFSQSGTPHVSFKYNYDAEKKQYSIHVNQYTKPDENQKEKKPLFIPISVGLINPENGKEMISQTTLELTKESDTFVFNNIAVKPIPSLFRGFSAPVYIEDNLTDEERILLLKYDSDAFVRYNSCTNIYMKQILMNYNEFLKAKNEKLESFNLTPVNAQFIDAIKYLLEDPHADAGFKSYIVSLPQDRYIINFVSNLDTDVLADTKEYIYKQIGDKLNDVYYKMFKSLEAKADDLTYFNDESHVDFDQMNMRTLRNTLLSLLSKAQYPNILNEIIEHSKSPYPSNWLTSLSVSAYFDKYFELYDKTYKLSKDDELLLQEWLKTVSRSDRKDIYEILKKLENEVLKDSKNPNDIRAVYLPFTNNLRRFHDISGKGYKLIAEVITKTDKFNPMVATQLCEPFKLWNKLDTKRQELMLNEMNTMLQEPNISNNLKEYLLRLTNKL

[8] = biological target: T3, Sentrin-specific protease 7 (Homo sapiens, UniProt Q9BQF6); assay type: functional;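 note: Luminescence-based dose-response confirmation of ultra-high-throughput screening hits, measuring inhibition of SENP7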
T3 sequence (Q9BQF6 whole entry): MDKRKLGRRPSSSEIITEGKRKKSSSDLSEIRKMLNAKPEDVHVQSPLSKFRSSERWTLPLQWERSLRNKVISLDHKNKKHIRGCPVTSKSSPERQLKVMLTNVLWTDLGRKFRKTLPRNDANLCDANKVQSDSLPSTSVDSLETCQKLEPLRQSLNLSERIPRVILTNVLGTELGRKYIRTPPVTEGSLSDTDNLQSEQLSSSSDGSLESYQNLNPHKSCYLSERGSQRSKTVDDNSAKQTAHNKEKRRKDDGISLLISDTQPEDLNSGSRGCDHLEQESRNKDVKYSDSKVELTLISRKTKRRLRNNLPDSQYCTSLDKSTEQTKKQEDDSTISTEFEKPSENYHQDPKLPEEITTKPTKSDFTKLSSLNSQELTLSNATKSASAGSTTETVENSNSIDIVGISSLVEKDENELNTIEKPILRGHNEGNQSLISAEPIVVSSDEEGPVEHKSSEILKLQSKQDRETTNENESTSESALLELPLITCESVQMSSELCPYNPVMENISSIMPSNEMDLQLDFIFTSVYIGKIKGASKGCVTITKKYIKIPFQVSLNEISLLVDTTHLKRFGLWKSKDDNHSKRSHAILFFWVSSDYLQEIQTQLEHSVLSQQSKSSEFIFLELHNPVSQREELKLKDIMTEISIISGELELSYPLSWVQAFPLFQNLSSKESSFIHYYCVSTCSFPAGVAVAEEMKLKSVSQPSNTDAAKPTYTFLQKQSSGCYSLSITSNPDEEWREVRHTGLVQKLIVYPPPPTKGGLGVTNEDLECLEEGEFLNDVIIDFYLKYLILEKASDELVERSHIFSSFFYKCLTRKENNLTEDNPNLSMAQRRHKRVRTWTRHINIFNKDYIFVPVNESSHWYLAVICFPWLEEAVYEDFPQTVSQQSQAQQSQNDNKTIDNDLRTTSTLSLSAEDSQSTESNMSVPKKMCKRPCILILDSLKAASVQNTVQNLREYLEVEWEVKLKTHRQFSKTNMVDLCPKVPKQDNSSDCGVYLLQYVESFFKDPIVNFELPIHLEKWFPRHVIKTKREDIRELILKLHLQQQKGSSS

[9] = biological target: T4, Sentrin-specific protease 6 (Homo sapiens, UniProt Q9GZR1); assay type: functional;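 note: Luminescence-based dose-response confirmatory assay of SENP6 inhibition, following up an ultra-high-throughput screen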
T4 sequence (Q9GZR1 whole entry): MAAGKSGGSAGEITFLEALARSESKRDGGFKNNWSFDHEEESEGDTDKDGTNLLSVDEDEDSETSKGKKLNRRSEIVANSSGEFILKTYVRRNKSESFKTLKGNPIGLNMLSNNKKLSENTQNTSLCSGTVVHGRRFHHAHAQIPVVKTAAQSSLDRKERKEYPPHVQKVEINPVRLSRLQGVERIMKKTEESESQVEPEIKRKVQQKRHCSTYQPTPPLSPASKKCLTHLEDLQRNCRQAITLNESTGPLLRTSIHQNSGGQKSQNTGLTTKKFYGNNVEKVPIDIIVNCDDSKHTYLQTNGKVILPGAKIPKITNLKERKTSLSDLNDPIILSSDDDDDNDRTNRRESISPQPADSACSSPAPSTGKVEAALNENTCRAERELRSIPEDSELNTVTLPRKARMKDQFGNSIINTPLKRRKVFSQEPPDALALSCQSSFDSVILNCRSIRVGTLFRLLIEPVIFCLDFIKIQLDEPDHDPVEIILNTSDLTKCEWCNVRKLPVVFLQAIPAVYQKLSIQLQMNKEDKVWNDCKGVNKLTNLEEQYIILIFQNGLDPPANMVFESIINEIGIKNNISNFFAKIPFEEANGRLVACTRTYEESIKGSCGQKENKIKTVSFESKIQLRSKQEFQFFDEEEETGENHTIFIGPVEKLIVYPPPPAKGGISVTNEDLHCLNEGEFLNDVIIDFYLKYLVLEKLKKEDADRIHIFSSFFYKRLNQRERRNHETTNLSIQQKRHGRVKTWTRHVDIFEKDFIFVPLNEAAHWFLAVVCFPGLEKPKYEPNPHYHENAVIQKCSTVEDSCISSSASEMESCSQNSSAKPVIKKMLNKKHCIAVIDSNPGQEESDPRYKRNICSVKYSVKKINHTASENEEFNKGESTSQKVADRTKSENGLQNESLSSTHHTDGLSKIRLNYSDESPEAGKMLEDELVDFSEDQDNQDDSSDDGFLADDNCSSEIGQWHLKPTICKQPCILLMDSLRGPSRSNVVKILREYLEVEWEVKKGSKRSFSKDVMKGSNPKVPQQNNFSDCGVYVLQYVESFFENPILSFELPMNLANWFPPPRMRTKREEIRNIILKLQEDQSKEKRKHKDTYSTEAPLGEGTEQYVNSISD

[10] = biological target: T5, Sentrin-specific protease 8 (Homo sapiens, UniProt Q96LD8); assay type: functional;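 note: luminescence read-out of SENP8 inhibition, dose-response confirmation following an ultra-high-throughput screen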
T5 sequence (Q96LD8 whole entry): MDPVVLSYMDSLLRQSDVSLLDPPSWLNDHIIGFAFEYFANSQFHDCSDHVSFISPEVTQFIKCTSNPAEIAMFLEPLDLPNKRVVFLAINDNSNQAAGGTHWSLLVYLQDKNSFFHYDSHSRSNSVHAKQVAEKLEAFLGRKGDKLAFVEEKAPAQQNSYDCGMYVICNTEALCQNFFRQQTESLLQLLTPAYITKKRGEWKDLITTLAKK

INS1 = experiment: INS-1E survival protection against cytokine death – cell-based, luminescence, retest, dose response (AID 449756); assay type: functional; settings: Rattus norvegicus;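 note: cell death triggered by IL-1 beta plus TNF-alpha plus IFN-gamma mixture; protective hits raise ATP signal compared with cytokine alone wells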
[11] = biological target: T6, Polyadenylate-binding protein 1 (Homo sapiens, UniProt P11940); experiment: MLLE binding blockers, Cy5 peptide tracer – biochemical, fluorescence polarization, Cy5-PAM2 peptide, secondary, miRNA deadenylation inhibitor project, dose response (AID 602260); assay type: functional; settings: read-out: IC50_Mean
T6 sequence (P11940 whole entry, the tested form may be a part): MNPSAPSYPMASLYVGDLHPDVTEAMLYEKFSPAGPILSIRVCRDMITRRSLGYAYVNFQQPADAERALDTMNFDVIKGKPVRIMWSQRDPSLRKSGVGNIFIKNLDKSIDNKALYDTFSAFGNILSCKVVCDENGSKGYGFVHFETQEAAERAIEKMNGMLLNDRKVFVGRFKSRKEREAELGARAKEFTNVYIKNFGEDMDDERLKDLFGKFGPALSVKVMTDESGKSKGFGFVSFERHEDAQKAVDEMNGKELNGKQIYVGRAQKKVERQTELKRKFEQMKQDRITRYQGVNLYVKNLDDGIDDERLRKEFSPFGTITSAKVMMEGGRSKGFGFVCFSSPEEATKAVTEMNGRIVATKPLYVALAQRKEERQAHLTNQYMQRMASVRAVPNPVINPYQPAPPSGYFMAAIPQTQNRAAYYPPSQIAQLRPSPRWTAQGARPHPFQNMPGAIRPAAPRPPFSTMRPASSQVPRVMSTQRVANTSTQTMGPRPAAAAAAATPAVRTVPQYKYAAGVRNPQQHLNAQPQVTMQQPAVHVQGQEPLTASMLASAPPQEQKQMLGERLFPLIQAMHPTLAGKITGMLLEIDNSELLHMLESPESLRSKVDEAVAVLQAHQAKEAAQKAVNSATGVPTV

[12] = biological target: T6, Polyadenylate-binding protein 1; experiment: MLLE domain peptide-binding blockers, IC50 – biochemical, fluorescence polarization, FITC-PAM2 peptide, dose response (AID 602259); assay type: functional; settings: read-out: IC50_Mean

Sequence of Nonstructural protein 1 (Q194T2 whole entry): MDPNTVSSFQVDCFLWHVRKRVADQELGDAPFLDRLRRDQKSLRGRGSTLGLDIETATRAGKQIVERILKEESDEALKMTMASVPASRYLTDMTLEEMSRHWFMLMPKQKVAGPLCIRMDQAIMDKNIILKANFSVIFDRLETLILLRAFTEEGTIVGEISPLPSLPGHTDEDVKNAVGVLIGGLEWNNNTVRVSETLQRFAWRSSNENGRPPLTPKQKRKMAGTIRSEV

CC1(C)OC(c2ccccc2)=C/C(=C/C=C2C(=O)c3ccccc3C2=O)O1
IC50 (Nonstructural protein 1): 6.6 µM (active)

COc1cccc(CN2CCNC(=O)C2CC(=O)N(C)CCc2ccccn2)c1 (stereo not given)
EC50 [1]: 4.73 µM (active)

Fc1cccc(-n2cc(-c3ccccc3)c3c(S)ncnc32)c1
EC50 [2]: > 150 µM (inactive)
EC50 [3]: 8.62 µM (active)
EC50 (HEK293 [4]): > 59.6 µM (inactive)
EC50 (HEK293 [5]): > 59.6 µM (inactive)

COc1ccc(CCN(C)c2ccc(S(=O)(=O)N3CCCC3)cc2[N+](=O)[O-])cc1OC
EC50 (HEK293 [4]): > 59.7 µM (inactive)
EC50 (HEK293 [5]): > 59.7 µM (inactive)

COC(=O)C1=C(C)N(C)C(=O)NC1c1cc(Cl)c(O)c(OC)c1 (stereo not given)
EC50 (cells [6]): > 350 µM (not active)
EC50 (cells [7]): > 350 µM (not active)
EC50 (HEK293 [4]): > 59.6 µM (inactive)
EC50 (HEK293 [5]): > 59.6 µM (inactive)

OCCNCCSc1ccc(Cl)cc1
EC50 [1]: 1.5 µM (active)

CCCCN(CC)C(=O)CSc1nc2c(sc(=S)n2-c2ccc(OCC)cc2)c(=O)[nH]1
IC50 (Aminopeptidase N): 38.8 µM (active)

Cc1ccc(S(=O)(=O)N(C)C)cc1NC(=O)Nc1c(-c2ccccc2)noc1C
IC50 (Aminopeptidase N): 12.9 µM (active)

COc1ccc(C(N)=NOC(=O)CSc2ccccc2)cc1
IC50 [8]: 5.98 µM (active)
IC50 [9]: 28 µM (active)
IC50 [10]: 12.8 µM (active)

CN(C)C(CNC(=O)CSc1nc2sc3c(c2c(=O)n1C)CCCC3)c1ccccc1 (stereo not given)
EC50 (HEK293 [4]): > 59.6 µM (inactive)
EC50 (HEK293 [5]): > 59.6 µM (inactive)

COc1ccc(O)c(/C=N/NC(=S)Nc2cccnc2)c1
IC50 (Nonstructural protein 1): 3.04 µM (active)
AC50 (INS1): 1.56 µM (active)
IC50 [11]: > 66 µM (inactive)
IC50 [12]: > 66 µM (inactive)

O=C(O)C(Cc1ccccc1)/N=C/c1c(O)oc2ccccc2c1=O (stereo not given)
IC50 (Aminopeptidase N): 20.6 µM (active)
